Source: PubChem BioAssay (NCI)
“And” between values parts separate entries of the source, which are not always exact repeats. Equal values may be shown once.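 Where inhibition never reached the appropriate level, the endpoint shown equals the highest concentration tested. Otherwise, values were interpolated linearly from a five-concentration, 48-hour dose response in 96-well plates. GI50 is the concentration that inhibits growth by half. TGI is the concentration that stops growth completely.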

Assays:
Assay in all cases: NCI anticancer screen, dose series, 48 h
[1] = tested on: 786-0 renal
[2] = tested on: A498 renal
[3] = tested on: A549 NSCLC
[4] = tested on: ACHN renal
[5] = tested on: CAKI-1 renal
[6] = tested on: CCRF-CEM leukemia
[7] = tested on: COLO 205 colon
[8] = tested on: DLD-1 colon
[9] = tested on: DMS 114 small cell lung
[10] = tested on: DMS 273 small cell lung
[11] = tested on: EKVX NSCLC
[12] = tested on: HCT-116 colon
[13] = tested on: HL-60(TB) leukemia
[14] = tested on: HOP-62 NSCLC
[15] = tested on: HOP-92 NSCLC
[16] = tested on: K-562 leukemia
[17] = tested on: KM12 colon
[18] = tested on: KM20L2 colon
[19] = tested on: LOX IMVI melanoma
[20] = tested on: M14 melanoma
[21] = tested on: M19-MEL melanoma
[22] = tested on: MOLT-4 leukemia
[23] = tested on: NCI-H23 lung
[24] = tested on: NCI-H460 lung
[25] = tested on: NCI-H522 lung
[26] = tested on: OVCAR-3 ovarian
[27] = tested on: OVCAR-4 ovarian
[28] = tested on: OVCAR-8 ovarian
[29] = tested on: RPMI-8226 leukemia
[30] = tested on: RXF 393 renal
[31] = tested on: RXF-631 renal
[32] = tested on: SF-268 CNS
[33] = tested on: SF-295 CNS
[34] = tested on: SF-539 CNS
[35] = tested on: SK-MEL-28 melanoma
[36] = tested on: SK-MEL-5 melanoma
[37] = tested on: SK-OV-3 ovarian
[38] = tested on: SN12C renal
[39] = tested on: SNB-19 CNS
[40] = tested on: SNB-75 CNS
[41] = tested on: SNB-78 CNS
[42] = tested on: SR leukemia
[43] = tested on: SW-620 colon
[44] = tested on: TK-10 renal
[45] = tested on: U251 CNS
[46] = tested on: UACC-257 melanoma
[47] = tested on: UACC-62 melanoma
[48] = tested on: UO-31 renal
[49] = tested on: HCC-2998 colon
[50] = tested on: HCT-15 colon
[51] = tested on: HOP-18 NSCLC
[52] = tested on: IGROV1 ovarian
[53] = tested on: LXFL 529 NSCLC
[54] = tested on: MALME-3M melanoma
[55] = tested on: NCI-H226 lung
[56] = tested on: SK-MEL-2 melanoma
[57] = tested on: BT-549 breast
[58] = tested on: DU-145 prostate
[59] = tested on: HS 578T breast
[60] = tested on: HT29 colon
[61] = tested on: MDA-MB-231 breast
[62] = tested on: MDA-MB-435
[63] = tested on: NCI/ADR-RES ovarian
[64] = tested on: OVCAR-5 ovarian
[65] = tested on: PC-3 prostate
[66] = tested on: T-47D breast
[67] = tested on: XF 498 CNS

CCCC(Sc1ccccc1)P(=O)(c1ccccc1)c1ccccc1 (configuration not stated)
TGI [1]: > 100000 nM | TGI [2]: > 100000 nM | TGI [3]: > 100000 nM | TGI [4]: 61400 nM | TGI [5]: > 100000 nM | TGI [6]: > 100000 nM | TGI [7]: > 100000 nM | TGI [8]: > 100000 nM | TGI [9]: > 100000 nM | TGI [10]: > 100000 nM | TGI [11]: 84100 nM | TGI [12]: > 100000 nM | TGI [13]: 52600 nM | TGI [14]: > 100000 nM | TGI [15]: 60100 nM | TGI [16]: > 100000 nM | TGI [17]: > 100000 nM | TGI [18]: > 100000 nM | TGI [19]: > 100000 nM | TGI [20]: > 100000 nM | TGI [21]: > 100000 nM | TGI [22]: 52200 nM | TGI [23]: > 100000 nM | TGI [24]: > 100000 nM | TGI [25]: > 100000 nM | TGI [26]: > 100000 nM | TGI [27]: > 100000 nM | TGI [28]: > 100000 nM | TGI [29]: 51800 nM | TGI [30]: > 100000 nM | TGI [31]: 94700 nM | TGI [32]: > 100000 nM | TGI [33]: > 100000 nM | TGI [34]: > 100000 nM | TGI [35]: > 100000 nM | TGI [36]: 87200 nM | TGI [37]: 50700 nM | TGI [38]: > 100000 nM | TGI [39]: > 100000 nM | TGI [40]: > 100000 nM | TGI [41]: > 100000 nM | TGI [42]: 66400 nM | TGI [43]: > 100000 nM | TGI [44]: > 100000 nM | TGI [45]: > 100000 nM | TGI [46]: > 100000 nM | TGI [47]: 37000 nM | TGI [48]: > 100000 nM

C1CCOC2(CCC3(CC2)OCCCCO3)OC1
TGI [1]: > 100000 nM | TGI [2]: > 100000 nM | TGI [3]: > 100000 nM | TGI [4]: > 100000 nM | TGI [5]: > 100000 nM | TGI [6]: > 100000 nM | TGI [7]: > 100000 nM | TGI [8]: > 100000 nM | TGI [9]: > 100000 nM | TGI [10]: > 100000 nM | TGI [49]: > 100000 nM | TGI [12]: > 100000 nM | TGI [50]: > 100000 nM | TGI [13]: > 100000 nM | TGI [51]: > 100000 nM | TGI [14]: > 100000 nM | TGI [52]: > 100000 nM | TGI [16]: > 100000 nM | TGI [17]: > 100000 nM | TGI [18]: > 100000 nM | TGI [53]: > 100000 nM | TGI [20]: > 100000 nM | TGI [21]: > 100000 nM | TGI [54]: > 100000 nM | TGI [22]: > 100000 nM | TGI [55]: > 100000 nM | TGI [24]: > 100000 nM | TGI [25]: > 100000 nM | TGI [27]: > 100000 nM | TGI [28]: > 100000 nM | TGI [29]: > 100000 nM | TGI [30]: > 100000 nM | TGI [32]: > 100000 nM | TGI [34]: > 100000 nM | TGI [56]: > 100000 nM | TGI [35]: > 100000 nM | TGI [36]: > 100000 nM | TGI [37]: > 100000 nM | TGI [38]: > 100000 nM | TGI [39]: > 100000 nM | TGI [40]: > 100000 nM | TGI [41]: > 100000 nM | TGI [42]: > 100000 nM | TGI [43]: > 100000 nM | TGI [44]: > 100000 nM | TGI [45]: > 100000 nM | TGI [46]: > 100000 nM | TGI [47]: > 100000 nM | TGI [48]: > 100000 nM

CN(C)c1ccc(C(=C2C=CC(=[N+](C)C)C=C2)c2ccc(N(C)C)cc2)cc1
GI50 [1]: 187 nM | TGI [1]: 709 nM and 1170 nM | GI50 [2]: 145 nM | TGI [2]: 622 nM | TGI [3]: 1200 nM and 2480 nM | GI50 [4]: 253 nM | TGI [4]: 1170 nM and 1010 nM | GI50 [57]: 180 nM | TGI [57]: 621 nM | GI50 [5]: 249 nM | TGI [5]: 788 nM and 2430 nM | TGI [6]: 832 nM | GI50 [7]: 97.4 nM | TGI [7]: 447 nM and 751 nM | TGI [8]: 1740 nM | TGI [10]: 1150 nM | GI50 [58]: 78.3 nM | TGI [58]: 1230 nM | GI50 [11]: 149 nM | TGI [11]: 1410 nM and 1500 nM | GI50 [49]: 194 nM | TGI [49]: 1170 nM and 934 nM | GI50 [12]: 36.3 nM | TGI [12]: 360 nM | TGI [50]: 1350 nM and 1260 nM | GI50 [13]: 160 nM | TGI [13]: 493 nM and 173 nM | GI50 [14]: 44.7 nM | TGI [14]: 1110 nM and 2430 nM | GI50 [15]: 145 nM | TGI [15]: 461 nM | GI50 [59]: 87.5 nM | TGI [59]: 2820 nM | GI50 [60]: 36.3 nM | TGI [60]: 158 nM | GI50 [52]: 264 nM | TGI [52]: 2260 nM and 1400 nM | TGI [16]: 1100 nM and 143 nM | GI50 [17]: 78.1 nM | TGI [17]: 397 nM and 930 nM | TGI [18]: 938 nM | TGI [53]: 1030 nM | GI50 [20]: 140 nM | TGI [20]: 598 nM and 1390 nM | TGI [21]: 1410 nM | GI50 [54]: 216 nM | TGI [54]: 879 nM and 773 nM | GI50 [61]: 246 nM | TGI [61]: 1260 nM | GI50 [62]: 152 nM | TGI [62]: 431 nM | GI50 [22]: 297 nM | TGI [22]: 2410 nM and 543 nM | TGI [23]: 370 nM | TGI [24]: 1550 nM | GI50 [63]: 410 nM | TGI [63]: 2000 nM | TGI [27]: 1050 nM | GI50 [64]: 295 nM | TGI [64]: 1170 nM and 578 nM | GI50 [65]: 178 nM | TGI [65]: 963 nM | GI50 [29]: 35.8 nM | TGI [29]: 165 nM and 163 nM | GI50 [30]: 113 nM | TGI [30]: 468 nM and 695 nM | TGI [33]: 244 nM and 885 nM | GI50 [34]: 190 nM | TGI [34]: 1030 nM and 1230 nM | TGI [56]: 472 nM and 482 nM | GI50 [35]: 219 nM | TGI [35]: 1090 nM and 1900 nM | GI50 [36]: 162 nM | TGI [36]: 324 nM and 214 nM | GI50 [37]: 268 nM | TGI [37]: 860 nM and 718 nM | GI50 [38]: 40 nM | TGI [38]: 1430 nM and 902 nM | GI50 [39]: 222 nM | TGI [39]: 1480 nM and 1710 nM | GI50 [40]: 112 nM | TGI [40]: 581 nM and 1030 nM | TGI [41]: 5670 nM | GI50 [42]: 59.1 nM | TGI [42]: 672 nM and 3200 nM | GI50 [43]: 69.3 nM | TGI [43]: 1230 nM | GI50 [66]: 157 nM | TGI [66]: 1120 nM | GI50 [44]: 162 nM | TGI [44]: 864 nM | GI50 [45]: 46.2 nM | TGI [45]: 565 nM and 1140 nM | GI50 [46]: 228 nM | TGI [46]: 763 nM and 416 nM | GI50 [47]: 261 nM | TGI [47]: 1000 nM | GI50 [48]: 284 nM | TGI [48]: 1230 nM and 1010 nM | TGI [67]: 193 nM
